Literature values, collected in US20100286262A1, “PTGS2 HAPLOTYPES” (priority 2007, published 2010).
Where two headings read alike, the source gives them in different places.

Legend:
[1] = adjuvant setting; cited from earlier work
[2] = system: colorectal cancer (CRC) risk; conditions: cited from earlier work

Compound	Cardiotoxicity [1]	RR of CRC with aspirin use ([2]; cancers with weak or absent COX-2 expression, 0.73-1.26)	RR of CRC with aspirin use ([2]; tumours overexpressing COX-2, 0.52-0.78)
O=c1[nH]cc(F)c(=O)[nH]1 [5-fluorouracil]	2-4%	–	–
CC(=O)Oc1ccccc1C(=O)O [aspirin]	–	0.96	0.64
